The text below walks through data of article PMC11289669, “BAR502/fibrate conjugates: synthesis, biological evaluation and metabolic profile” (Frontiers in Chemistry, 2024).

Series [1] can be described thus: Plasma profile / metabolite quantization in mice (LC-MS MRM). The format is in vivo.
A further series has as its target T1, FXR (Homo sapiens, UniProt Q96RI1).
T1 sequence (Q96RI1 262-486 limits assumed): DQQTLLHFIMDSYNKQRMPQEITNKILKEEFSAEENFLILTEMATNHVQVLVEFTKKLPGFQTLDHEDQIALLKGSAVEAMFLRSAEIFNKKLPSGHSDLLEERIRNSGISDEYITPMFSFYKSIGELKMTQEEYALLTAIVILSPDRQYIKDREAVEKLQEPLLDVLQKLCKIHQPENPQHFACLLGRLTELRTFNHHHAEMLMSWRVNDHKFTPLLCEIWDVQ
The experiment in a line: AlphaScreen coactivator (SRC-1) recruitment assay on FXR. The conditions noted are these: for FXR efficacy (% vs. CDCA): AlphaScreen SRC-1 recruitment, compounds at 10 μM, CDCA = 100%; for EC50: AlphaScreen coactivator recruitment, FXR with SRC-1. The format is biochemical. The procedure:
Compounds’ ability to mediate cofactor recruitment was evaluated by employing AlphaScreen GST Detection Kit (PerkinElmer). Particularly, FXR agonism was evaluated employing 10 nM FXR-LBD GST-fused (Thermo Scientific) and 30 nM of biotinylated SRC1 peptide ([…]) in the presence of 20 μg/mL donor and acceptor beads and in buffer containing 50 mM Tris-HCl (pH7.4), 20 mM KCl, 1 mM DTT, and 0.1% BSA. For PPARα assay, a buffer containing 50 mM MOPS, 50 mM NaF, 0.05 mM CHAPS, and 0.05% BSA (pH = 7.4) was used, and 20 nM PPARα LBD GST fused (Thermo Scientific) and 60 nM of biotinylated SRC1 peptide were employed. Both acceptor and donor beads were added to reach 20 μg/mL final concentration. Incubations were performed in a final volume of 25 μL employing 384 wells Optiplate and Alpha signal was measured with Envision 2,105 (Perkin Elmer) multimode plate reader. For efficacy, compounds were tested at 10 μM for FXR and 50 μM for PPARα.

A short description of series [2]: Chemical stability in HCl buffer, PBS buffer and culture medium by LC-MS. Conditions: 10 μM. In kind it is physicochemical. As for the experimental part:
(§1) Chemical stability in HCl Buffer, PBS buffer and culture medium (EMEM) was evaluated by LC-MS dissolving compound 1 at 10 μM (final concertation) in cited buffers and injecting aliquots removed from incubations at different time points. Microsomal stability was evaluated employing 50 mM potassium phosphate buffer (pH 7.4) containing 0.15 mg of Human liver microsomes (Sigma-Aldrich, St. Louis, MO, United States) 5 mM MgCl2, 1 mM NADPH, 5 mM glucose 6-phosphate, 0.4 U·mL^−1 glucose 6-phosphate dehydrogenase. Compounds were tested at 1 µM final concentration. Aliquots, removed at different time points, were diluted with ice-cold acetonitrile and analyzed by LC-MS.

The nature of series [3]: Microsomal stability in human liver microsomes. In kind it is in vitro ADME. The conditions noted are these: pH 7.4, 1 µM. As for the experimental part: as §1
Background: Microsomes from liver hold many membrane-bound enzymes, among them those of drug oxidation.

A short description of series [4]: Stability in cryopreserved pooled human hepatocytes. In kind it is in vitro ADME. Conditions: cryopreserved pooled human hepatocytes (HEP10), read-out: t1/2 in cryopreserved hepatocytes. As for the experimental part: Cryopreserved HEP10 Pooled Human Hepatocytes were thawed in 37°C water bath for 2 min and then transferred into CHRM® Medium. After centrifugation at room temperature cells were resuspended in pre-warmed Incubation Medium and diluted to correct seeding density (5 × 10^5 cells/mL).

For another series, the system named is 3T3-L1 cells. Description: 3T3-L1 preadipocyte differentiation, adipogenic marker gene expression (qRT-PCR). In kind it is cell-based, murine. The conditions noted are these: differentiation medium (DIM), 7 days, 10 µM. The procedure: The 3T3-L1 cells were cultured in Dulbecco’s modified Eagle’s medium (DMEM; Euroclone), supplemented with 10% fetal bovine serum, 1% l-glutamine, 100 U/mL penicillin, and 100 μg/mL streptomycin, at 37 °C. Preadipocytes of 3T3-L1 cells were plated at 1.7 × 10^6 cells in T75 flasks, and grown to confluence. Two days after reaching confluence (day 0), the cells were stimulated with differentiation medium (DIM), either alone (DMEM, 10% FBS, 500 μM 3-isobutyl-1-methylxanthine, 1 μM dexamethasone, […]), or in combination with BAR502 and clofibrate at the concentration of 5 µM or with compound 1 (10 µM). On day 3, the DIM was replaced by insulin medium (DMEM, 10% fetal bovine serum, […]) alone or with the compounds. On day 7 cells were recovered.
Total mRNA extraction from U937 and 3T3.L1 was performed using Tri-Reagent (Zymo Research) and Direct-zol™ RNA MiniPrep w/Zymo-Spin™ IIC Columns (Zymo Research, Irvine, CA). […] The relative mRNA expression was calculated accordingly to the ΔCt method. […]
On the technique in general: Quantitative PCR measures a nucleic acid by following its amplification.

A short description of series [5]: In cell permeation and metabolism in HepG2 cells (LC-MSMS). The format is in vitro ADME, human. Conditions: 0–480 min. The procedure:
HepG2 cells were treated with compound 1, BAR502 or clofibrate. At different time points (0–480 min) culture mediums and cells pellets were collected, extracted by adding ice-cold acetonitrile and analyzed by LC-MSMS.

“And” between values parts separate entries of the source, which are not always exact repeats. Identical values can stand only once. “Also recorded” adds a separate entry of the source.

By EC50 is commonly meant the concentration at which the effect is half-maximal. Lower therefore signals a more potent agent. As a reminder, the microsomal CLint is a measure of how fast metabolising enzymes remove a compound, apart from limits set by blood flow. A low value points to slow turnover.

`CC[C@@H]1C2C[C@H](O)CC[C@]2(C)C2CC[C@@]3(C)C(CC[C@@H]3[C@H](C)CCOC(=O)C(C)(C)Oc3ccc(Cl)cc3)C2[C@@H]1O` (stereo partly shown) [Compound 1]: the “Plasma level of oxidized metabolite BAR505” value in series [1] (mice treated with compound 1, 30 mg/kg) is “highly abundant species”. For the same compound, in series [1] (mice, 30 mg/kg), the “Plasma clofibric acid released, compared with that from clofibrate” value is given as “superimposable”. In series [1] (mice, 30 mg/kg, 0-8 h), the “Unmodified compound in plasma” value was “not detected; also recorded: not found”. Also, at FXR, the “FXR efficacy (% vs. CDCA)” value was 79% and 79.0 ± 3.8%; the midpoint of the response, the EC50, lay at 3400 ± 1200 nM. In addition, the “Chemical stability in HCl buffer” value in series [2] (HCl buffer, 2h) is listed as “stable”. The “Chemical stability in PBS buffer” value in series [2] (PBS buffer pH 7.4, 8 h) is on record as “stable”. The “Chemical stability in culture medium” value in series [2] (culture medium (EMEM), 8 h) is reported as “stable”. The compound also gave a microsomal CLint at 1 µM in series [3] of 87 µL/min/mg. The half-life at 1 µM in series [3] (read-out: t1/2 in human microsomes) was determined as 0.45 h. Further, in series [4], the half-life was 2.02 h. The “Expression of markers of adipocyte differentiation (Adiponectin, Pparγ, Cebp)” value in the series on 3T3-L1 cells is reported as “reduction in the expression of all markers of adipocyte differentiation”. Also, in series [5], the “Cell permeation (amount in cell pellets) compared to BAR502” value is “higher cell permeation” and the “Hydrolysis to clofibric acid in cells compared with clofibrate” value is reported as “hydrolyzed more slowly”.
In the case of `CC[C@H]1[C@@H](O)[C@@H]2[C@H](CC[C@]3(C)[C@@H]([C@H](C)CCO)CC[C@@H]23)[C@@]2(C)CC[C@@H](O)C[C@@H]12` [BAR502, 6α-ethyl-3α,7α-dihydroxy-24-nor-5β-cholan-23-ol], at FXR, the “FXR efficacy (% vs. CDCA)” value was 153.0 ± 3.1% and the EC50 turned out to be 690 ± 150 nM.
